One block for each molecule: values may come before it.
Legend:
[1] = system: healthy elderly Japanese male subjects; conditions: in vivo
From the text: (§2) This study was a randomized, open-label, parallel-group, repeated-dose study conducted at a single center.
(§3) We measured BT by the Ivy method [12] using a needle type of BD Microtainer Contact-Activated Lancet device (Becton, Dickinson and Company, USA). The incision was made in the lateral aspect of the forearm by puncturing at one arbitrary site with the device. After the incision, we blotted the blood every 30 s with filter paper until the bleeding reached hemostasis and recorded the time from the puncture to the end of bleeding. When the time to hemostasis exceeded 10 min, it was recorded as such, ending the observation. […] Baseline BT was measured on the day of admission at approximately the same time of day as the BT evaluations on Day 3 and Day 8, 3 hours after the administration of study drug(s).
(§4) For the primary endpoint analysis, a logarithmically converted value of BT for each sample was the dependent variable in a linear mixed model with fixed and random effects.

[2] = system: healthy elderly Japanese male subjects; experiment: Bleeding time (BT) by the Ivy method; conditions: 30 mg edoxaban once daily for 3 days, Day 3, 3 h after administration
From the text: as §2, §3, §4

[3] = system: healthy elderly Japanese male subjects; experiment: Safety: adverse events in the clinical pharmacology study; conditions: 30 mg edoxaban alone, 24 participants
[4] = Plasma edoxaban pharmacokinetics (LC-MS/MS, noncompartmental analysis); conditions: 30 mg edoxaban alone, Day 3; for AUC / Cmax / Tmax: male, human, in vivo, 30 mg; for AUC: AUCtau,ss of edoxaban; for Cmax: Cmax,ss of edoxaban; for Tmax: tmax,ss of edoxaban
Procedure: Plasma samples were obtained by centrifugation, and the samples were immediately frozen at − 20 °C or lower.
Summary statistics were calculated for baseline and postdose values for the primary endpoint of BT and secondary endpoints of PD indices (PT, aPTT, F1 + 2, PRU) for each target population. […] 8.1 based on Model 1200 (Extravascular). AUCtau,ss was calculated by the linear-Log trapezoidal method.
For the secondary endpoints analysis, we used the logarithmically converted PK parameters (Cmax,ss, AUCtau,ss, tmax,ss) as dependent variables in a linear mixed model with fixed and variable effects.

blood coagulation = experiment: Activated partial thromboplastin time (aPTT), HemosIL SynthASil reagent; type: in vivo, human; conditions: 30 mg edoxaban, Day 3
Procedure: (§1) Blood was collected in a vacuum blood collection tube containing 3.2% sodium citrate, and the schedule for the blood sample collection is shown in Table 1. Blood coagulation marker PT was measured by PT reagent Thrombocheck-PT in system CS-200i (Sysmex Corporation, Japan); aPTT by aPTT reagent HemosIL SynthASil in system ACL TOP Base (IL, Japan; Instrumentation Laboratory, USA) and F1 + 2 by ELISA Enzygnost F1 + 2 monoclonal reagent in system Behring ELISA Processor III and DiaSorin (BIT Analytical Instruments GmbH, Germany). These assays were carried out at LSI Medience Corporation (Tokyo, Japan). We measured PRU with VerifyNow system (Instrumentation Laboratory, Bedford, MA, USA) at Sumida Hospital.

platelet aggregation = experiment: P2Y12 reaction units (PRU), VerifyNow system; type: in vivo, human; conditions: 30 mg edoxaban alone, Day 3
Procedure: as §1

Dose dependence of the effect of prasugrel on BT [1]: dose-dependent
Structure (SMILES): CC(=O)Oc1cc2c(s1)CCN(C(C(=O)C1CC1)c1ccccc1F)C2 (stereo not drawn) [prasugrel]

Bleeding time, Mean (SD) ([2]; Group 1, n = 12): 3.5 (0.6) min
Bleeding time, Median (IQR) ([2]; Group 1, n = 12): 3.5 (3.0–4.0) min
Bleeding time, Mean (SD) ([2]; Group 2, n = 12): 4.7 (1.6) min
Bleeding time, Median (IQR) ([2]; Group 2, n = 12): 4.5 (3.3–6.0) min
tmax,ss of edoxaban, Mean (SD) ([4]; Group 2, n = 12): 1.0 (0.84) h
AUC ([4]; Mean (SD), Group 1, n = 12): 1060 ng·h/mL
AUC ([4]; Mean (SD), Group 2, n = 12): 1070 ng·h/mL
AUC ([4]; Median (IQR), Group 1, n = 12): 1020 ng·h/mL
AUC ([4]; Median (IQR), Group 2, n = 12): 992 ng·h/mL
Cmax ([4]; Mean (SD), Group 1, n = 12): 216 ng/mL
Cmax ([4]; Mean (SD), Group 2, n = 12): 191 ng/mL
Cmax ([4]; Median (IQR), Group 1, n = 12): 200 ng/mL
Cmax ([4]; Median (IQR), Group 2, n = 12): 170 ng/mL
Tmax ([4]; Mean (SD), Group 1, n = 12): 72 min
Tmax ([4]; Median (IQR), Group 1, n = 12): 45 min
Tmax ([4]; Median (IQR), Group 2, n = 12): 30 min
Structure (SMILES): CN1CCc2nc(C(=O)N[C@@H]3C[C@@H](C(=O)N(C)C)CC[C@@H]3NC(=O)C(=O)Nc3ccc(Cl)cn3)sc2C1 [Edoxaban, edoxaban]
Positive results in the fecal occult blood test (number) [3]: four
aPTT, mean (blood coagulation; Group 1, baseline 31.9): 38.0 s
aPTT, mean (blood coagulation; Group 2, baseline 34.2): 39.9 s
Effect on PRU (platelet aggregation): essentially had no effect

From publication PMC7291522 (Thrombosis Journal, 2020)
